Measurements from PMC10804407, “Rombocin, a Short Stable Natural Nisin Variant, Displays Selective Antimicrobial Activity against Listeria monocytogenes and Employs a Dual Mode of Action to Kill Target Bacterial Strains” (ACS Synthetic Biology, 2024).
In brackets after ≈: the same amount, converted by molar mass.

Experiments:
L. monocytogenes LK132 = type: cell-based, Listeria monocytogenes; conditions: LK132
Protocol: (§1) Each experiment was performed in triplicate.

[1] = tested on: L. monocytogenes LMG10470; type: cell-based, Listeria monocytogenes; conditions: LMG10470
Protocol: as §1

L. monocytogenes TT82E = type: cell-based, Listeria monocytogenes; conditions: TT82E
Protocol: as §1

[2] = tested on: E. faecalis LMG16216 (VRE); type: cell-based, Enterococcus faecalis; conditions: LMG16216
Protocol: as §1

[3] = Spot-on-lawn assay, peptide-lipid II complex formation; type: binding, Lactococcus lactis; conditions: L. lactis MG1363, purified lipid II 300 μM, 2 μL at edge of halo, overnight 30 °C
Protocol: To evaluate the binding of peptide and lipid II or lipoteichoic acid (LTA), an overnight cultured L. lactis MG1363 was added to 0.8% GM17 (w/v, temperature 45 °C) at a final concentration of 0.1% (v/v), and then, the mixture was poured onto 10 mL plates. The binding of peptide and lipid II or LTA was further evaluated by spotting of purified lipid II (300 μM, 2 μL) or LTA (1 mg/mL, 2 μL) to the edge of the inhibition halo of antibiotics. Briefly, antimicrobials were loaded to the agar plate. After the antimicrobial solution drops had dried, lipid II or LTA was spotted to the edge of inhibition halo of antimicrobials. The plates were then incubated overnight at 30 °C after the drops had dried.

[4] = Growth curve-based lipid II/LTA binding assay; type: cell-based, Lactococcus lactis; conditions: L. lactis MG1363, 5 × MIC peptide, 2 µl lipid II, 6 hours, three replicates
Protocol: Screening the antibacterial activity of peptides by spot-on-lawn assay
To prepare the plates, an overnight culture of the strains was added to 0.8% LB agar or GM17agar (wt/vol) at 45 ℃ and mixed to a final concentration of 0.1% (vol/vol) before being poured onto the plates (10 ml each). Next, 5 µl of the precursor peptide and 1 µl of 1 mg/mL NisP were dropped onto the plates and left to dry before incubation. The plates were then incubated overnight at 37°C, except for L. lactis, which was incubated at 30°C.
Evaluation of (methyl)lanthionine formation
16 μL of phosphate-buffered saline (pH 7.4) was added to the samples followed by treatment with 2 μL of 5 mg/mL tris[2-carboxyethyl]phosphine for 30 min at room temperature. Next, 4.5 μL of 25 mg/mL N-ethylmaleimide was added to the samples, which were then incubated at room temperature for 2 h.
Subsequently, the samples were desalted using a C18 ZipTip (Millipore) according to the manufacturer’s instructions and subjected to MALDI-TOF MS analysis.
Growth curve and lipid II/LTA binding assay
Overnight cultures of L. lactis MG1363 were diluted to an OD 600 of 0.05 and added to a 96-well plate, which was incubated at 30°C. […] The growth curve was recorded over the following 6 hours using a microplate spectrophotometer under the same conditions, with three replicates used for each treatment.

L. lactis MG1363 = assay: Time-kill assay; type: cell-based, Lactococcus lactis; conditions: 5-fold MIC
Protocol: The bactericidal activity of nisin, nisin(1–22), and rombocin was evaluated according to a previously described procedure based on Guo et al.[38] Briefly, an overnight culture of L. lactis MG1363 was diluted 50-fold in GM17 medium and incubated at 30 °C. The bacteria were grown until reaching an optical density at 600 nm (OD600) of 0.5, at which point the cell concentration was adjusted to 5 × 10^5 CFU/mL. Subsequently, the bacteria were challenged with a 5-fold MIC of each peptide. A control sample of an untreated cell suspension was included. At specific time points, 50 μL aliquots were collected, and undiluted and 10-fold serially diluted suspensions were plated on GM17 agar. The plates were incubated overnight at 30 °C, and the resulting colonies were counted and calculated as colony-forming units per milliliter (CFU/mL). Both assays were performed in triplicate to ensure reproducibility.

L. lactis = assay: Fluorescence microscopy assay of membrane integrity (SYTO 9 / propidium iodide); type: cell-based, Lactococcus lactis; conditions: 5× MIC, 15 min / 20 min (method), room temperature
Protocol: L. lactis was cultured until it reached an OD600 of 0.8 and then pelleted at 8000g for 5 min and washed three times in 0.7% NaCl. The cell density was normalized to an OD600 of 0.4 in 0.7% NaCl, and a concentration of 5-fold MIC value of each tested antibiotic was added to the cell suspension simultaneously with SYTO 9 and propidium iodide using the LIVE/DEAD Baclight Bacterial Viability Kit (Invitrogen). After incubation at room temperature for 20 min, the compounds were removed by washing the cells with 0.7% NaCl. Finally, the cell suspensions were loaded onto 1.5% agarose pads and analyzed with a DeltaVision Elite microscope (Applied Precision).

[5] = pH stability by residual antimicrobial activity; type: physicochemical; conditions: residual antimicrobial activity vs L. lactis 1363, agar well, triplicate
Protocol: (§2) To investigate the impact of proteolytic enzymes, pH, and temperature on the antimicrobial activity, a representative strain of L. lactis 1363 was utilized. For the proteolytic enzyme assay, 40 μL of peptide (1 mg/mL) was incubated with or without final concentrations of 1 mg/mL proteolytic enzymes at room temperature for 3 h, followed by an activity test in the agar well. To determine pH stability, the pH was adjusted to 2, 4, 7, and 10 using 1 M HCl or NaOH. The temperature stability was assessed by incubating the peptide at 22, 50, 70, and 90 °C for a specified duration. All experiments were performed in triplicate.
(§3) Overnight cultures of the test strains were inoculated at a final concentration of 0.1% (v/v) into melted LB agar at 45 °C and then poured onto plates. After solidification, 8 mm wells were created and filled with 40 μL of the lantibiotic solution (1 mg/mL). The lantibiotics were activated by adding 5 μL of NisP directly to the well. The plates were then incubated overnight at 30 °C, and the zone of inhibition was measured. Zone diameters were calculated by subtracting the area of the well (πr^2) from the area of the zone (πr^2) and reported in millimeters. To determine the peptide concentration, purified and lyophilized peptides were resuspended in 0.05% aqueous acetic acid solution and quantified by HPLC following the protocol described by Schmitt et al.[44] All experiments were performed in triplicate.

[6] = Thermal stability by residual antimicrobial activity; type: physicochemical; conditions: residual antimicrobial activity vs L. lactis 1363, agar well, triplicate
Protocol: as §2
as §3, with “All experiments were performed in triplicate.” left out

**Q.** Which MIC (L. monocytogenes LK132) does the source give for `C=C1NC(=O)[C@H]([C@@H](C)CC)NC(=O)C(NC(=O)C(=CC)NC(=O)[C@@H](N)[C@@H](C)CC)CSC[C@@H](C(=O)NC2C(=O)N[C@@H](C)C(=O)NCC(=O)N[C@H](C(=O)N[C@H](C(=O)NC3C(=O)NCC(=O)N[C@@H](C(C)C)C(=O)N[C@@H]([C@@H](C)CC)C(=O)N[C@@H](CCSC)C(=O)NC(=CC)C(=O)N[C@H](C(=O)N[C@@H](CCSC)C(=O)NC4CSC[C@@H](C(=O)N[C@@H](CCCCN)C(=O)O)NC(=O)CNC(=O)[C@H](CC(N)=O)NC4=O)CSC3C)[C@@H](C)CC)CSC2C)NC(=O)[C@H](CC(C)C)NC1=O` (some centres unmarked) [rombocin A] here?
**A.** 25 µg/mL (≈ 10.5 µM)

**Q.** What about the MIC [1] of the same molecule?
**A.** 25 µg/mL (≈ 10.5 µM)

**Q.** What about the MIC (L. monocytogenes TT82E) of the same molecule?
**A.** 12,5 μg/mL

**Q.** And the MIC [2]?
**A.** 50 µg/mL (≈ 21 µM)

**Q.** And the “binding to lipid II (effect of spotted lipid II on the inhibition halo)” value [3]?
**A.** reduction in the antimicrobial activity against L. lactis

**Q.** What about the “effect of added lipid II on activity (growth curves)” value [4] of the same molecule?
**A.** reduced its activity

**Q.** What about the “time to complete killing” value (L. lactis MG1363; L. lactis MG1363, 5 × 10^5 CFU/mL, CFU counting, triplicate) of the same molecule?
**A.** 18 h

**Q.** And the “bacteriostatic or bactericidal activity” value (L. lactis MG1363; L. lactis, time-dependent killing)?
**A.** strong bactericidal activity

**Q.** What about the “membrane integrity (SYTO 9 / propidium iodide fluorescence)” value (L. lactis) of the same molecule?
**A.** membrane disruption similar to nisin

**Q.** What about the retained activity ([5]; neutral pH, after 8 h of incubation) of the same molecule?
**A.** 70%

**Q.** And the reduction in activity ([5]; pH 2, 4, 7, and 10 (adjusted with 1 M HCl or NaOH), up to 5.5 h)?
**A.** less than 20%

**Q.** And the retained activity ([5]; pH 2 and 4, after 8 h of incubation)?
**A.** more than 80%

**Q.** What about the “incubation time to complete loss of activity” value ([6]; 90 °C) of the same molecule?
**A.** 7 h

**Q.** And the reduction in activity ([6]; temperatures between 22 and 50 °C, up to 10 h)?
**A.** less than 30%
